According to the supplement of paper PMC10331698:
± gives the standard deviation of the averaged measurements.

Tests used:
Experiment in all cases: level (log10 ratio to DMSO vehicle control); higher = higher biomarker level / cell amount than vehicle control
Details in all cases: in DMSO
[1] = compound: C=CC(=O)OCCC(F)(F)C(F)(F)C(F)(F)C(F)(F)C(F)(F)C(F)(F)C(F)(F)C(F)(F)F [8:2 Fluorotelomer acrylate]
Method: (§1)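 BioMAP Diversity Plus panel of 12 human primary cell co-culture systems (3C, 4H, LPS, SAg, BT, BF4T, BE3C, CASM3C, HDF3CGF, KF3CT, MyoF, Mphg). Compounds were added 1 h before stimulation and left for 24 h (MyoF 48 h; BT 72 h for soluble read-outs or 6 d for IgG). Biomarkers were read by ELISA, cytotoxicity by SRB, PBMC viability and proliferation by Alamar Blue. Each well value was divided by the mean of 8 DMSO control wells on the same plate and log10 transformed; duplicate blinded samples were tested at 4 concentrations.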

[2] = compound: O=C(O)C(F)(F)C(F)(F)C(F)(F)C(F)(F)C(F)(F)C(F)(F)C(F)(F)F [Perfluorooctanoic acid]
Method: as §1

[3] = compound: O=P(O)(O)CCC(F)(F)C(F)(F)C(F)(F)C(F)(F)C(F)(F)C(F)(F)F [2-(Perfluorohexyl)ethylphosphonic acid]
Method: as §1

[4] = compound: O=S(=O)(O)CCC(F)(F)C(F)(F)C(F)(F)C(F)(F)F [4:2 Fluorotelomer sulfonic acid]
Method: as §1

[5] = compound: OCC(F)(F)C(F)(F)C(F)(F)C(F)(F)C(F)(F)C(F)(F)F [6:1 Fluorotelomer alcohol]
Method: as §1

[6] = compound: OCCCCC(F)(F)C(F)(F)C(F)(F)C(F)(F)F [4:4 Fluorotelomer alcohol]
Method: as §1

SAg:CD62E/E-Selectin
level (log10) ([1]; 6700 nM): -0.0125 ± 0.00071 | level (log10) ([1]; 20000 nM): 0.0205 ± 0.03 | level (log10) ([1]; 60000 nM): -0.009 ± 0.025 | level (log10) ([2]; 6700 nM): 0.009 ± 0.0057 | level (log10) ([2]; 20000 nM): 0.015 ± 0.0085 | level (log10) ([2]; 60000 nM): 0.086 ± 0.0014 | level (log10) ([3]; 6700 nM): 0.004 ± 0.0042 | level (log10) ([3]; 20000 nM): 0.0015 ± 0.0021 | level (log10) ([3]; 60000 nM): 0.0635 ± 0.021 | level (log10) ([4]; 6700 nM): -0.016 ± 0.0085 | level (log10) ([4]; 20000 nM): -0.011 ± 0.0071 | level (log10) ([4]; 60000 nM): 0.009 ± 0.0071 | level (log10) ([5]; 6700 nM): 0.0085 ± 0.026 | level (log10) ([5]; 20000 nM): -0.001 ± 0.0085 | level (log10) ([5]; 60000 nM): 0 ± 0.025 | level (log10) ([6]; 6700 nM): -0.001 ± 0.0014 | level (log10) ([6]; 20000 nM): -0.01 ± 0.0071 | level (log10) ([6]; 60000 nM): -0.014 ± 0.028

SAg:CD69
level (log10) ([1]; 6700 nM): -0.01 ± 0.027 | level (log10) ([1]; 20000 nM): -0.025 ± 0.016 | level (log10) ([1]; 60000 nM): -0.0295 ± 0.032 | level (log10) ([2]; 6700 nM): -0.0095 ± 0.0035 | level (log10) ([2]; 20000 nM): -0.0265 ± 0.011 | level (log10) ([2]; 60000 nM): -0.0355 ± 0.016 | level (log10) ([3]; 6700 nM): -0.004 ± 0.025 | level (log10) ([3]; 20000 nM): -0.008 ± 0.02 | level (log10) ([3]; 60000 nM): 0.009 ± 0.03 | level (log10) ([4]; 6700 nM): -0.023 ± 0.027 | level (log10) ([4]; 20000 nM): -0.0165 ± 0.028 | level (log10) ([4]; 60000 nM): -0.028 ± 0.037 | level (log10) ([5]; 6700 nM): -0.0215 ± 0.011 | level (log10) ([5]; 20000 nM): -0.0205 ± 0.0092 | level (log10) ([5]; 60000 nM): -0.0045 ± 0.0064 | level (log10) ([6]; 6700 nM): 0.009 ± 0.0057 | level (log10) ([6]; 20000 nM): -0.002 ± 0.0028 | level (log10) ([6]; 60000 nM): 0.001 ± 0.02

SAg:CXCL8/IL-8
level (log10) ([1]; 6700 nM): -0.021 ± 0.0099 | level (log10) ([1]; 20000 nM): -0.029 ± 0.0099 | level (log10) ([1]; 60000 nM): -0.0185 ± 0.043 | level (log10) ([2]; 6700 nM): 0.015 ± 0.016 | level (log10) ([2]; 20000 nM): 0.0165 ± 0.028 | level (log10) ([2]; 60000 nM): 0.0745 ± 0.029 | level (log10) ([3]; 6700 nM): -0.003 ± 0.038 | level (log10) ([3]; 20000 nM): 0.015 ± 0.023 | level (log10) ([3]; 60000 nM): 0.143 ± 0.0021 | level (log10) ([4]; 6700 nM): -0.048 ± 0.093 | level (log10) ([4]; 20000 nM): -0.007 ± 0.052 | level (log10) ([4]; 60000 nM): 0.034 ± 0.042 | level (log10) ([5]; 6700 nM): -0.035 ± 0.048 | level (log10) ([5]; 20000 nM): -0.0425 ± 0.025 | level (log10) ([5]; 60000 nM): -0.013 ± 0.069 | level (log10) ([6]; 6700 nM): 0.0075 ± 0.0021 | level (log10) ([6]; 20000 nM): 0.002 ± 0.0057 | level (log10) ([6]; 60000 nM): -0.0015 ± 0.025

SAg:CXCL9/MIG
level (log10) ([1]; 6700 nM): -0.0065 ± 0.0035 | level (log10) ([1]; 20000 nM): -0.017 ± 0.0014 | level (log10) ([1]; 60000 nM): 0.009 ± 0.0099 | level (log10) ([2]; 6700 nM): -0.0085 ± 0.0021 | level (log10) ([2]; 20000 nM): -0.008 ± 0.0028 | level (log10) ([2]; 60000 nM): 0.004 ± 0.017 | level (log10) ([3]; 6700 nM): 0.0025 ± 0.0035 | level (log10) ([3]; 20000 nM): -0.012 | level (log10) ([3]; 60000 nM): 0.0005 ± 0.022 | level (log10) ([4]; 6700 nM): -0.0055 ± 0.013 | level (log10) ([4]; 20000 nM): -0.0075 ± 0.0064 | level (log10) ([4]; 60000 nM): 0.0035 ± 0.005 | level (log10) ([5]; 6700 nM): -0.0025 ± 0.021 | level (log10) ([5]; 20000 nM): -0.013 ± 0.018 | level (log10) ([5]; 60000 nM): -0.0055 ± 0.0092 | level (log10) ([6]; 6700 nM): 0.0015 ± 0.0021 | level (log10) ([6]; 20000 nM): -0.006 ± 0.0071 | level (log10) ([6]; 60000 nM): 0.0045 ± 0.012

SAg:PBMC Cytotoxicity
level (log10) ([1]; 6700 nM): -0.01 ± 0.013 | level (log10) ([1]; 20000 nM): -0.006 ± 0.027 | level (log10) ([1]; 60000 nM): -0.0005 ± 0.05 | level (log10) ([2]; 6700 nM): 0.0195 ± 0.0021 | level (log10) ([2]; 20000 nM): 0.022 ± 0.0085 | level (log10) ([2]; 60000 nM): 0.042 ± 0.016 | level (log10) ([3]; 6700 nM): -0.019 ± 0.023 | level (log10) ([3]; 20000 nM): 0.012 ± 0.037 | level (log10) ([3]; 60000 nM): -0.0165 ± 0.026 | level (log10) ([4]; 6700 nM): 0.0015 ± 0.013 | level (log10) ([4]; 20000 nM): -0.007 ± 0.031 | level (log10) ([4]; 60000 nM): 0.02 ± 0.0014 | level (log10) ([5]; 6700 nM): -0.014 ± 0.013 | level (log10) ([5]; 20000 nM): -0.014 ± 0.0099 | level (log10) ([5]; 60000 nM): -0.0295 ± 0.073 | level (log10) ([6]; 6700 nM): -0.0115 ± 0.015 | level (log10) ([6]; 20000 nM): 0.014 ± 0.011 | level (log10) ([6]; 60000 nM): 0.0195 ± 0.03

SAg:Proliferation
level (log10) ([1]; 6700 nM): 0.0035 ± 0.022 | level (log10) ([1]; 20000 nM): -0.0625 ± 0.0064 | level (log10) ([1]; 60000 nM): -0.0055 ± 0.043 | level (log10) ([2]; 6700 nM): 0.044 ± 0.0085 | level (log10) ([2]; 20000 nM): 0.041 | level (log10) ([2]; 60000 nM): 0.016 ± 0.025 | level (log10) ([3]; 6700 nM): 0.0125 ± 0.0078 | level (log10) ([3]; 20000 nM): -0.0165 ± 0.019 | level (log10) ([3]; 60000 nM): -0.036 ± 0.03 | level (log10) ([4]; 6700 nM): -0.0615 ± 0.015 | level (log10) ([4]; 20000 nM): 0.009 ± 0.054 | level (log10) ([4]; 60000 nM): -0.017 ± 0.041 | level (log10) ([5]; 6700 nM): -0.0075 ± 0.005 | level (log10) ([5]; 20000 nM): -0.0455 ± 0.0035 | level (log10) ([5]; 60000 nM): -0.0325 ± 0.13 | level (log10) ([6]; 6700 nM): -0.026 ± 0.014 | level (log10) ([6]; 20000 nM): -0.0185 ± 0.0035 | level (log10) ([6]; 60000 nM): -0.005 ± 0.047

SAg:SRB
level (log10) ([1]; 6700 nM): -0.004 ± 0.0028 | level (log10) ([1]; 20000 nM): -0.0055 ± 0.011 | level (log10) ([1]; 60000 nM): 0.001 ± 0.014 | level (log10) ([2]; 6700 nM): -0.018 ± 0.013 | level (log10) ([2]; 20000 nM): 0.0045 ± 0.012 | level (log10) ([2]; 60000 nM): -0.053 ± 0.017 | level (log10) ([3]; 6700 nM): -0.008 ± 0.011 | level (log10) ([3]; 20000 nM): 0.0025 ± 0.013 | level (log10) ([3]; 60000 nM): -0.0355 ± 0.035 | level (log10) ([4]; 6700 nM): -0.0105 ± 0.005 | level (log10) ([4]; 20000 nM): -0.0085 ± 0.011 | level (log10) ([4]; 60000 nM): -0.009 ± 0.011 | level (log10) ([5]; 6700 nM): 0.0065 ± 0.015 | level (log10) ([5]; 20000 nM): 0 ± 0.0042 | level (log10) ([5]; 60000 nM): 0.008 ± 0.0085 | level (log10) ([6]; 6700 nM): 0.0005 ± 0.0021 | level (log10) ([6]; 20000 nM): 0.0085 ± 0.015 | level (log10) ([6]; 60000 nM): -0.0055 ± 0.0035
